The record followed here is PubChem BioAssay AID651842 (Sanford-Burnham Center for Chemical Genomics, 2012).

This test has as its system Sufu-KO-LIGHT cells viability, ATP-Lite luminescence. Nature of the test: Sufu-null reporter cell viability loss – ATP luminescence, set 1, cytotoxicity control for Gli-SUFU antagonist project, SAR follow-up (AID 651842).

Where “and” joins values, the source holds several entries; their conditions need not be identical. Identical values can stand only once. Calls of active or inactive are those of the source.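 How the source made its calls: active means IC50 of 35 µM or lower, which flags the compound as cytotoxic and nonspecific; inactive means the rest.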 A value given as a limit tells only on which side of the number the result lay.

In general, IC50 refers to the point on the concentration scale where inhibition reaches its midpoint.

Take `O=C(Nc1cc(N2CCCCC2)ncn1)c1cccc2ccccc12`: the IC50 was > 35 µM (inactive).

As for `CCN(CC)c1cc(NC(=O)c2ccc(Br)o2)ncn1`, the IC50 was > 35 µM (inactive).

As to `CN(C)c1cc(NC(=O)c2ccccc2)ncn1`, the IC50 is > 35 µM (inactive).

Regarding `CC1CCN(c2cc(NC(=O)c3ccccc3)ncn2)CC1`, the IC50 was > 35 µM (inactive).

As for `CN(C)c1cc(NC(=O)c2cccc(C#N)c2)ncn1`, the IC50 was > 35 µM (inactive).

With `O=C(Nc1cc(N2CCCCC2)ncn1)c1cc2ccccc2s1`, the concentration for half-maximal inhibition (IC50) is 6.97 µM.

With `COc1cc(OC)cc(C(=O)Nc2cc(N3CCCCC3)ncn2)c1`, the half-maximal inhibitory concentration (IC50) is 4.69 µM.

As for `O=C(Nc1cc(N2CCNCC2)ncn1)c1ccccc1`, the IC50 was > 35 µM (inactive).

On to `O=C(Nc1cc(N2CCCCCC2)ncn1)c1ccccc1`, for which the IC50 was > 35 µM (inactive).

Regarding `O=C(Nc1cc(N2CCCCC2)ncn1)c1ccc(Cl)cc1`, the half-maximal inhibitory concentration (IC50) was 1.42 µM and 0.588 µM.

`COc1ccccc1C(=O)Nc1cc(N2CCCCC2)ncn1`: the IC50 was > 35 µM (inactive).

As for `Cc1nc(NC(=O)c2ccccc2)cc(N2CCCC2)n1`, the IC50 is > 35 µM (inactive).

With `CCN(CC)c1cc(NC(=O)c2ccccc2)nc(C)n1`, the IC50 was > 35 µM (inactive).

As for `O=C(Nc1cc(N2CCCC2)ncn1)c1cccc(F)c1`, the IC50 is > 35 µM (inactive).

Regarding `CCN(CC)c1cc(NC(=O)c2cccc(C#N)c2)ncn1`, the IC50 is > 35 µM (inactive).

For the compound `CC(C)CNc1cc(NC(=O)c2cccc(F)c2)ncn1`, the IC50 is > 35 µM (inactive).

`COc1cc(OC)cc(C(=O)Nc2cc(Nc3cccc(Cl)c3)ncn2)c1`: the IC50 was > 35 µM (inactive).

With `N#Cc1ccc(C(=O)Nc2cc(N3CCCCC3)ncn2)cc1`, the IC50 is > 35 µM (inactive).

With `CCN(CC)c1cc(NC(=O)c2ccccc2)ncn1`, the IC50 was > 35 µM (inactive).

Take `Cc1ccc(C(=O)Nc2cc(N3CCCCC3)ncn2)cc1`: the IC50 is 3.45 µM.

For the compound `N#Cc1cccc(C(=O)Nc2cc(N3CCCCC3)ncn2)c1`, the IC50 is > 35 µM (inactive).

As for `CN1CCN(c2cc(NC(=O)c3ccccc3)ncn2)CC1`, the IC50 was > 35 µM (inactive).

Take `CCN(CC)c1cc(NC(=O)c2ccccc2F)ncn1`: the IC50 was > 35 µM (inactive).

With `O=C(Nc1cc(N2CCCCC2)ncn1)c1ccccc1F`, the IC50 is > 35 µM (inactive).

Turning to `CC(C)(C)Nc1cc(NC(=O)c2ccccc2)ncn1`, the IC50 is > 35 µM (inactive).

In the case of `CCC(C)Nc1cc(NC(=O)c2ccccc2)ncn1` (centres undefined), the IC50 is > 35 µM (inactive).

On to `CCN(CC)c1cc(NC(=O)c2cccc(F)c2)ncn1`, for which the IC50 was > 35 µM (inactive).

In the case of `CN(C)c1cc(NC(=O)c2cccc(F)c2)ncn1`, the IC50 was > 35 µM (inactive).

Turning to `O=C(Nc1cc(N2CCCCC2)ncn1)c1ccco1`, the IC50 is > 35 µM (inactive).

In the case of `Cc1nc(NC(=O)c2ccccc2)cc(N(C)C)n1`, the IC50 is > 35 µM (inactive).

As to `CC1CCCCN1c1cc(NC(=O)c2ccccc2)ncn1` (centres undefined), the IC50 is > 35 µM (inactive).

In the case of `O=C(Nc1cc(N2CCOCC2)ncn1)c1ccccc1`, the IC50 is > 35 µM (inactive).

Consider `O=C(Nc1cc(N2CCCCC2)ncn1)c1cccs1`, for which the IC50 was > 35 µM (inactive).

`Cc1nc(NC(=O)c2ccccc2)cc(N2CCCCC2)n1`: the IC50 was > 35 µM (inactive).

For the compound `CCCCNc1cc(NC(=O)c2ccccc2)ncn1`, the IC50 is > 35 µM (inactive).

Consider `O=C(Nc1cc(N2CCCCC2)ncn1)c1ccc(Br)o1`, for which the IC50 was > 35 µM (inactive).

Turning to `COc1cc(OC)cc(C(=O)Nc2cc(N(C)C)ncn2)c1`, the IC50 was > 35 µM (inactive).

For the compound `O=C(Nc1cc(N2CCCCC2)ncn1)c1ccccc1`, the IC50 is > 35 µM (inactive).

Take `CC(C)(C)OC(=O)N1CCN(c2cc(NC(=O)c3ccccc3)ncn2)CC1`: the IC50 was 0.24 µM.

Turning to `O=C(Nc1cc(N2CCCCC2)ncn1)c1ccc2ccccc2c1`, the IC50 was 2.57 µM.

Turning to `O=C(Nc1cc(N2CCCCC2)ncn1)c1cccc(F)c1`, the IC50 is > 35 µM (inactive).

On to `CC(C)Nc1cc(NC(=O)c2ccccc2)ncn1`, for which the IC50 is > 35 µM (inactive).

Turning to `CN(C)c1cc(NC(=O)c2ccccc2F)ncn1`, the IC50 is > 35 µM (inactive).

In the case of `COc1cc(OC)cc(C(=O)Nc2cc(N3CCCC3)ncn2)c1`, the IC50 is > 35 µM (inactive).

Turning to `O=C(Nc1cc(NCC2CCCO2)ncn1)c1ccccc1` (centres undefined), the IC50 was > 35 µM (inactive).

Consider `CCN(CC)c1cc(NC(=O)c2cc(OC)cc(OC)c2)ncn1`, for which the IC50 was > 35 µM (inactive).

`O=C(Nc1cc(N2CCCCC2)ncn1)c1ccccc1Cl`: the IC50 was > 35 µM (inactive).

Take `O=C(Nc1cc(N2CCCC2)ncn1)c1ccccc1`: the IC50 is > 35 µM (inactive).

With `CCCCN(C)c1cc(NC(=O)c2ccccc2)ncn1`, the IC50 was 2.89 µM.

Consider `O=C(Nc1cc(N2CCSCC2)ncn1)c1ccccc1`, for which the IC50 was > 35 µM (inactive).

As to `COc1cccc(C(=O)Nc2cc(N3CCCCC3)ncn2)c1`, the half-maximal inhibitory concentration (IC50) was 2.28 µM.

On to `O=C(Nc1cc(N2CCCC2)ncn1)c1ccccc1F`, for which the IC50 was > 35 µM (inactive).

Consider `CC(C)CNc1cc(NC(=O)c2ccccc2)ncn1`, for which the IC50 is > 35 µM (inactive).

With `O=C(Nc1cc(N2CCCCC2)ncn1)c1ccsc1`, the IC50 was > 35 µM (inactive).
